From ChEMBL document CHEMBL3758093, “Sulfonamide inhibition studies of the β-carbonic anhydrase from the pathogenic bacterium Vibrio cholerae” (Bioorg Med Chem, 2016)

Molecular target: Carbonic anhydrase 1 (Homo sapiens, UniProt P00915)
Sequence (P00915 whole entry): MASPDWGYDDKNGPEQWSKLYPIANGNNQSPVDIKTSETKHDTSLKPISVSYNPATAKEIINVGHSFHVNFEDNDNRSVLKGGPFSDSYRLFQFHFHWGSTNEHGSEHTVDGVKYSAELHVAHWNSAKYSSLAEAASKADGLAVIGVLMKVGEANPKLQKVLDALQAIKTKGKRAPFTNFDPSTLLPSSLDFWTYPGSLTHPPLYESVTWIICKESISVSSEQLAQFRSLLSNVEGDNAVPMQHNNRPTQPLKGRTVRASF

Q: For NS(=O)(=O)c1cccc(S(N)(=O)=O)c1, which Ki is on record?
A: 28 µM
